Reference: ChEMBL document CHEMBL4411296, “Design and development of Isatin-triazole hydrazones as potential inhibitors of microtubule affinity-regulating kinase 4 for the therapeutic management of cell proliferation and metastasis” (Eur J Med Chem, 2019)
Activity calls are given as the source filed them. The rule behind the calls is not given here.

Legend:
HL-60(TB) = assay: Growth inhibition of human HL-60(TB) cells assessed as cell growth at 10 uM after 48 hrs by sulforhodamine B assay relative to control; format: functional; conditions: HL-60, 48 h, read-out: Activity
MOLT-4 = assay: Growth inhibition of human MOLT4 cells assessed as cell growth at 10 uM after 48 hrs by sulforhodamine B assay relative to control; format: functional; conditions: MOLT-4, 48 h, read-out: Activity
HOP-62 = assay: Growth inhibition of human HOP62 cells assessed as cell growth at 10 uM after 48 hrs by sulforhodamine B assay relative to control; format: functional; conditions: HOP-62, 48 h, read-out: Activity
HOP-92 = assay: Growth inhibition of human HOP92 cells assessed as cell growth at 10 uM after 48 hrs by sulforhodamine B assay relative to control; format: functional; conditions: HOP-92, 48 h, read-out: Activity
NCI-H226 = assay: Growth inhibition of human NCI-H226 cells assessed as cell growth at 10 uM after 48 hrs by sulforhodamine B assay relative to control; format: functional; conditions: NCI-H226, 48 h, read-out: Activity
NCI-H460 = assay: Growth inhibition of human NCI-H460 cells assessed as cell growth at 10 uM after 48 hrs by sulforhodamine B assay relative to control; format: functional; conditions: NCI-H460, 48 h, read-out: Activity
NCI-H522 = assay: Growth inhibition of human NCI-H522 cells assessed as cell growth at 10 uM after 48 hrs by sulforhodamine B assay relative to control; format: functional; conditions: NCI-H522, 48 h, read-out: Activity
COLO 205 = assay: Growth inhibition of human COLO205 cells assessed as cell growth at 10 uM after 48 hrs by sulforhodamine B assay relative to control; format: functional; conditions: COLO 205, 48 h, read-out: Activity
HCC 2998 = assay: Growth inhibition of human HCC2998 cells assessed as cell growth at 10 uM after 48 hrs by sulforhodamine B assay relative to control; format: functional; conditions: HCC 2998, 48 h, read-out: Activity
SF-539 = assay: Growth inhibition of human SF539 cells assessed as cell growth at 10 uM after 48 hrs by sulforhodamine B assay relative to control; format: functional; conditions: SF-539, 48 h, read-out: Activity
SNB-19 = assay: Growth inhibition of human SNB19 cells assessed as cell growth at 10 uM after 48 hrs by sulforhodamine B assay relative to control; format: functional; conditions: SNB-19, 48 h, read-out: Activity
U-251 = assay: Growth inhibition of human U251 cells assessed as cell growth at 10 uM after 48 hrs by sulforhodamine B assay relative to control; format: functional; conditions: U-251, 48 h, read-out: Activity
Malme-3M = assay: Growth inhibition of human MALME-3M cells assessed as cell growth at 10 uM after 48 hrs by sulforhodamine B assay relative to control; format: functional; conditions: read-out: Activity
MDA-MB-435 = assay: Growth inhibition of human MDA-MB-435 cells assessed as cell growth at 10 uM after 48 hrs by sulforhodamine B assay relative to control; format: functional; conditions: MDA-MB-435, 48 h, read-out: Activity
SK-MEL-2 = assay: Growth inhibition of human SK-MEL-2 cells assessed as cell growth at 10 uM after 48 hrs by sulforhodamine B assay relative to control; format: functional; conditions: SK-MEL-2, 48 h, read-out: Activity
UACC-62 = assay: Growth inhibition of human UACC62 cells assessed as cell growth at 10 uM after 48 hrs by sulforhodamine B assay relative to control; format: functional; conditions: UACC-62, 48 h, read-out: Activity
OVCAR-3 = assay: Growth inhibition of human OVCAR3 cells assessed as cell growth at 10 uM after 48 hrs by sulforhodamine B assay relative to control; format: functional; conditions: OVCAR-3, 48 h, read-out: Activity
OVCAR-5 = assay: Growth inhibition of human OVCAR5 cells assessed as cell growth at 10 uM after 48 hrs by sulforhodamine B assay relative to control; format: functional; conditions: OVCAR-5, 48 h, read-out: Activity
786-0 = assay: Growth inhibition of human 786-0 cells assessed as cell growth at 10 uM after 48 hrs by sulforhodamine B assay relative to control; format: functional; conditions: 786-0, 48 h, read-out: Activity
CAKI-1 = assay: Growth inhibition of human Caki1 cells assessed as cell growth at 10 uM after 48 hrs by sulforhodamine B assay relative to control; format: functional; conditions: CAKI-1, 48 h, read-out: Activity
RXF 393 = assay: Growth inhibition of human RXF393 cells assessed as cell growth at 10 uM after 48 hrs by sulforhodamine B assay relative to control; format: functional; conditions: RXF 393, 48 h, read-out: Activity
PC-3 = assay: Growth inhibition of human PC3 cells assessed as cell growth at 10 uM after 48 hrs by sulforhodamine B assay relative to control; format: functional; conditions: PC-3, 48 h, read-out: Activity
DU-145 = assay: Growth inhibition of human DU145 cells assessed as cell growth at 10 uM after 48 hrs by sulforhodamine B assay relative to control; format: functional; conditions: DU-145, 48 h, read-out: Activity
MCF7 [1] = assay: Growth inhibition of human MCF7 cells assessed as cell growth at 10 uM after 48 hrs by sulforhodamine B assay relative to control; format: functional; conditions: MCF7, 48 h, read-out: Activity
MDA-MB-468 = assay: Growth inhibition of human MDA-MB-468 cells assessed as cell growth at 10 uM after 48 hrs by sulforhodamine B assay relative to control; format: functional; conditions: MDA-MB-468, 48 h, read-out: Activity
HepG2 [2] = assay: Induction of apoptosis in human HepG2 cells assessed as early apoptotic cells at IC50 after 24 hrs by Annexin V-FITC/propidium iodide staining-based flow cytometric analysis (reference value: […]); format: functional
MCF7 [3] = assay: Induction of apoptosis in human MCF7 cells assessed as early apoptotic cells at IC50 after 24 hrs by Annexin V-FITC/propidium iodide staining-based flow cytometric analysis (reference value: 1.23%); format: functional
MDA-MB-435S = assay: Induction of apoptosis in human MDA-MB-435S cells assessed as viable cells at IC50 after 24 hrs by Annexin V-FITC/propidium iodide staining-based flow cytometric analysis (reference value: 98.8%); format: functional
HepG2 [4] = assay: Antimigratory activity against human HepG2 cells at IC50 after 48 hrs by wound-healing assay; format: functional, cell-based
[5] = molecular target: Serine/threonine-protein kinase MARK1 (Homo sapiens) (UniProt Q9P0L2); assay: Inhibition of MARK1 (unknown origin) at 10 uM after 60 mins by ADP-Glo luminescence assay
Sequence of Serine/threonine-protein kinase MARK1 (Homo sapiens) (Q9P0L2 whole entry, looked up): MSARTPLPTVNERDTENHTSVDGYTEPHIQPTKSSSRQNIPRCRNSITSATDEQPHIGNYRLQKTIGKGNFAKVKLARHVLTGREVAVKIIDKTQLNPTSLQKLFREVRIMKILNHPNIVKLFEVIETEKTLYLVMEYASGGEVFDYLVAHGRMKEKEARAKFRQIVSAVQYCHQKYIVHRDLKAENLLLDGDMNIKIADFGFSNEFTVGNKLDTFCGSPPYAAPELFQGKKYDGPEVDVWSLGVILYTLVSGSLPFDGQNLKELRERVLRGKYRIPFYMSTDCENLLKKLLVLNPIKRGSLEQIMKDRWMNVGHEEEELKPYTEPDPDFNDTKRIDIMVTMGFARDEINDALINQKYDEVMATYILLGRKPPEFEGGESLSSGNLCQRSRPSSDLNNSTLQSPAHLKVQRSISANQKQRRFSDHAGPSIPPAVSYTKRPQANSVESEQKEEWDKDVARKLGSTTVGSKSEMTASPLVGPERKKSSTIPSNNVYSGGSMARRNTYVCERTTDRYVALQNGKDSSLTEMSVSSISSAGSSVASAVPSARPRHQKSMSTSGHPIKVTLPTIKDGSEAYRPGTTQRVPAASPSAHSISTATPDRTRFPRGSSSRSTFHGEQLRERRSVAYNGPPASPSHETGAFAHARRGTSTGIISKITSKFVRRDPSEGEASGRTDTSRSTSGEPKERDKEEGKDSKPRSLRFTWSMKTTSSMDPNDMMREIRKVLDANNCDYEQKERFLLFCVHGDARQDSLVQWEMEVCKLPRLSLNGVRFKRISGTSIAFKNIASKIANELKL

[6] = molecular target: 5'-AMP-activated protein kinase catalytic subunit alpha-1 (Homo sapiens) (UniProt Q13131); assay: Inhibition of AMPKA1 (unknown origin) at 10 uM after 60 mins by ADP-Glo luminescence assay
Sequence of 5'-AMP-activated protein kinase catalytic subunit alpha-1 (Homo sapiens) (Q13131 whole entry, looked up): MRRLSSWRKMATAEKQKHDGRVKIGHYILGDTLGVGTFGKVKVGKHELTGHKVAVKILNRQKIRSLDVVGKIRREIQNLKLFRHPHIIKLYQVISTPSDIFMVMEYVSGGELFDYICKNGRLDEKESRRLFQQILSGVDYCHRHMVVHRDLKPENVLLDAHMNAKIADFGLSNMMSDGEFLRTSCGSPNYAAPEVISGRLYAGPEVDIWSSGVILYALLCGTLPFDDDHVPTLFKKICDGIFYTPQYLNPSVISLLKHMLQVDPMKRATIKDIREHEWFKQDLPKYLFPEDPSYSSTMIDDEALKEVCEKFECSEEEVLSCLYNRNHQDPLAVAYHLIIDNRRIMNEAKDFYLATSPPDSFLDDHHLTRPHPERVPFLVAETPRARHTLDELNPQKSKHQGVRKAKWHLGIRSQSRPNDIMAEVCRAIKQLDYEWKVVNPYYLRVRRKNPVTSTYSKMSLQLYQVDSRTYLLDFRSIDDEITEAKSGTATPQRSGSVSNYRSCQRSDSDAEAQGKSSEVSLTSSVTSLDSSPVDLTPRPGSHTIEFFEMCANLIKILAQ

[7] = molecular target: Serine/threonine-protein kinase 33 (Homo sapiens) (UniProt Q9BYT3); assay: Inhibition of STK33 (unknown origin) at 10 uM after 60 mins by ADP-Glo luminescence assay
Sequence of Serine/threonine-protein kinase 33 (Homo sapiens) (Q9BYT3 whole entry, looked up): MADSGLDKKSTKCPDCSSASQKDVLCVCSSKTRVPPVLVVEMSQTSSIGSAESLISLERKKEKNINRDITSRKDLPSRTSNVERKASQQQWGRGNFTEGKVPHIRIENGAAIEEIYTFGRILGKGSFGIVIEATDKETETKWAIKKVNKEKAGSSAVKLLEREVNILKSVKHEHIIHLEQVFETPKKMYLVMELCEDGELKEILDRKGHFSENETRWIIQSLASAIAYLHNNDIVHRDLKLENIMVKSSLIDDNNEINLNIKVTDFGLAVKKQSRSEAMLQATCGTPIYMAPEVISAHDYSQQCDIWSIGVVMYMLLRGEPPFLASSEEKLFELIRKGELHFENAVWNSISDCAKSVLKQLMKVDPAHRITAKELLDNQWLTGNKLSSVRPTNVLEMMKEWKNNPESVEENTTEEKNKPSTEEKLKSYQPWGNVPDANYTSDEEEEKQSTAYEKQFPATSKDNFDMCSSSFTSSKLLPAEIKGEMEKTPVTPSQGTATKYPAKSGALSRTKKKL

[8] = molecular target: Death-associated protein kinase 1 (Homo sapiens) (UniProt P53355); assay: Inhibition of DAPK1 (unknown origin) at 10 uM after 60 mins by ADP-Glo luminescence assay
Sequence of Death-associated protein kinase 1 (Homo sapiens) (P53355 whole entry, looked up): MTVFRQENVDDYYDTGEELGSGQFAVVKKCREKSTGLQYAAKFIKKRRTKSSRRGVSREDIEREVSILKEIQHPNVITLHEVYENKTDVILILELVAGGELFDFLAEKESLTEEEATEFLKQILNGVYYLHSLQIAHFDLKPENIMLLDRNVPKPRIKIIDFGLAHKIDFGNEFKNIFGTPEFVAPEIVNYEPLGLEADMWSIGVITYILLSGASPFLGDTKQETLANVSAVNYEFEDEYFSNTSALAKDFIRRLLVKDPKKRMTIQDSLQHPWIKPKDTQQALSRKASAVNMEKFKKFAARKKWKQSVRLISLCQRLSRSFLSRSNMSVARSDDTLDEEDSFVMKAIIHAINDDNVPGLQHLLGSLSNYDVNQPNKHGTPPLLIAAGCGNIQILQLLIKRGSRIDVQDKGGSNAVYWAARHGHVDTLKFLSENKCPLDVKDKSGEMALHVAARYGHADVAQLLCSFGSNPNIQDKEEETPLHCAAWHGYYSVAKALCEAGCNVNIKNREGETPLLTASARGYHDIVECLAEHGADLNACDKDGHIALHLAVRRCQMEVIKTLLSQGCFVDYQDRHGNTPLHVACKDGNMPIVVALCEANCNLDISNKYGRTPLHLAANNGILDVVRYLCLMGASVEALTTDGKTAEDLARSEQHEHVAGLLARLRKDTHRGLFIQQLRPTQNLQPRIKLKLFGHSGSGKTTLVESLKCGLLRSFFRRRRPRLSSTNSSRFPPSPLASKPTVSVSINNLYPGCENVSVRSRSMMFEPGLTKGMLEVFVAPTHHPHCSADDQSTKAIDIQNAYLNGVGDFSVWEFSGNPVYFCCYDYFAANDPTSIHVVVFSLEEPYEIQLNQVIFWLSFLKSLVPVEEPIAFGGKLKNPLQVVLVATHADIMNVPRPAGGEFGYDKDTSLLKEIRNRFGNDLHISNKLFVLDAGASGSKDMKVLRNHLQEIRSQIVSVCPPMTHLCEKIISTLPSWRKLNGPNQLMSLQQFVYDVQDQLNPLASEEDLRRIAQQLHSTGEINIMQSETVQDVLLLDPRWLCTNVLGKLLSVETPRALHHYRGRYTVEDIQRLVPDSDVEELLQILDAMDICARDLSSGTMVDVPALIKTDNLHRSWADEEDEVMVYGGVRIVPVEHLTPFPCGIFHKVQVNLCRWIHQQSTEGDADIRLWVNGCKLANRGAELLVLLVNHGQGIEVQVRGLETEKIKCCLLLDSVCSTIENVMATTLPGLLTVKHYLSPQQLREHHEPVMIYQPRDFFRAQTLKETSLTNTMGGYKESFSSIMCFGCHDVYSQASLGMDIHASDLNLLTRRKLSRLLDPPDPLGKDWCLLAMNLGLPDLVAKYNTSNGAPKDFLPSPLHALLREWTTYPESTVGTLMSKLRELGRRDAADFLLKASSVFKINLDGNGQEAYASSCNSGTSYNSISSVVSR

SMILES | growth at 10 µM (HL-60(TB)) [%] | growth at 10 µM (MOLT-4) [%] | growth at 10 µM (HOP-62) [%] | growth at 10 µM (HOP-92) [%] | growth at 10 µM (NCI-H226) [%] | growth at 10 µM (NCI-H460) [%] | growth at 10 µM (NCI-H522) [%] | growth at 10 µM (COLO 205) [%] | growth at 10 µM (HCC 2998) [%] | growth at 10 µM (SF-539) [%] | growth at 10 µM (SNB-19) [%] | growth at 10 µM (U-251) [%] | growth at 10 µM (Malme-3M) [%] | growth at 10 µM (MDA-MB-435) [%] | growth at 10 µM (SK-MEL-2) [%] | growth at 10 µM (UACC-62) [%] | growth at 10 µM (OVCAR-3) [%] | growth at 10 µM (OVCAR-5) [%] | growth at 10 µM (786-0) [%] | growth at 10 µM (CAKI-1) [%] | further results
COc1ccc(Cn2cc(C(=O)N/N=C3/C(=O)Nc4ccccc43)nn2)cc1 | 93.3 | 93.2 | 104 | 112 | 86.8 | 109 | 87.8 | 108 | 110 | 108 | 98 | 92.2 | 97.2 | 100 | 94.8 | 96.7 | 112 | 93 | 106 | 93.3 | growth at 10 µM (RXF 393): 101%; growth at 10 µM (PC-3): 103%; growth at 10 µM (DU-145): 104%; growth at 10 µM (MCF7 [1]): 96.5%; growth at 10 µM (MDA-MB-468): 99%
COc1ccc(Cn2cc(C(=O)N/N=C3/C(=O)Nc4c(C)cccc43)nn2)cc1 | 78.9 | 83.5 | 106 | 51.3 | 75.1 | 73 | 77.5 | 108 | 101 | 80.1 | 97.5 | 108 | 40.5 | 82 | 91.9 | 74.1 | 46.7 | 93.6 | 43.5 | 77.1 | Activity (HepG2 [2]): 37.3%; Activity (MCF7 [3]): 33.5%; Activity (MDA-MB-435S): 66.3%; Activity (HepG2 [4]): Active; inhibition [5]: inactive; inhibition [6]: inactive; inhibition [7]: inactive; inhibition [8]: inactive; growth at 10 µM (RXF 393): 81.9%; growth at 10 µM (PC-3): 61.3%; growth at 10 µM (DU-145): 60.4%; growth at 10 µM (MCF7 [1]): 84.9%; growth at 10 µM (MDA-MB-468): 89.2%
COc1ccc(Cn2cc(C(=O)N/N=C3/C(=O)Nc4ccc(F)c(Cl)c43)nn2)cc1 | 78.7 | 96.8 | 112 | 129 | 93.2 | 108 | 84 | 115 | 104 | 111 | 101 | 103 | 103 | 99.3 | 95.6 | 108 | 105 | 122 | 103 | 96.8 | growth at 10 µM (RXF 393): 104%; growth at 10 µM (PC-3): 105%; growth at 10 µM (DU-145): 96.6%; growth at 10 µM (MCF7 [1]): 91.8%; growth at 10 µM (MDA-MB-468): 108%
